Measurements reported in US20040038904A1, “Method of treating multiple sclerosis” (priority 2002, published 2004).

System: progressive multiple sclerosis
Test: Monitoring of progress of treatment (clinical condition) in patient with progressive multiple sclerosis
Type: in vivo, human
Settings: epirubicin 75-100 mg iv with dexrazoxane, 12-week cycle, first and second treatment cycles
Excerpt: Anthracyclines of the present invention can be administered in cycles over 7-week to 15-week intervals. Generally, treatment with anthracyclines is started with a 12-week cycle and the patient is monitored for progress of the treatment during the course of treatment. If the condition of the patient deteriorates between week 8 and 12 of the cycle, the treatment cycle should be shortened to, for example, 9 weeks or shorter.
A patient is diagnosed with progressive multiple sclerosis. Anthracycline therapy with epirubicin 75 mg by intravenous injection is initiated on a 12-week cycle. Prior to the administration of the anthracycline, the patient is pretreated with dexrazoxane at 750 mg by intravenous injection. The patient is monitored for progress of treatment and hematologic and non-hematologic toxicity throughout the course of treatment.

SMILES: COc1cccc2c1C(=O)c1c(O)c3c(c(O)c1C2=O)C[C@@](O)(C(=O)CO)C[C@@H]3O[C@H]1C[C@H](N)[C@@H](O)[C@H](C)O1 [epirubicin]
- patient's clinical condition during treatment cycle: deteriorates between weeks 9 and 12
